ChEMBL document CHEMBL5465560, “Selectivity Literature for EUbOPEN Chemogenomic Library” (2024)

Assays:
[1] = molecular target: Mitogen-activated protein kinase 14 (Homo sapiens, UniProt Q16539); experiment: Selectivity interaction (KinomeScan (DiscoverX)) EUB0000666a MAPK14; conditions: at 10 µM
[2] = molecular target: Mitogen-activated protein kinase 4 (Homo sapiens) (UniProt P31152); experiment: Selectivity interaction (KinomeScan (DiscoverX)) EUB0001079a MAPK4; conditions: at 1 µM
[3] = molecular target: T1, Ephrin type-A receptor 1 (Homo sapiens) (UniProt P21709); experiment: Selectivity interaction (KinomeScan (DiscoverX)) EUB0000092b EPHA1; conditions: at 10 µM
T1 sequence (whole entry): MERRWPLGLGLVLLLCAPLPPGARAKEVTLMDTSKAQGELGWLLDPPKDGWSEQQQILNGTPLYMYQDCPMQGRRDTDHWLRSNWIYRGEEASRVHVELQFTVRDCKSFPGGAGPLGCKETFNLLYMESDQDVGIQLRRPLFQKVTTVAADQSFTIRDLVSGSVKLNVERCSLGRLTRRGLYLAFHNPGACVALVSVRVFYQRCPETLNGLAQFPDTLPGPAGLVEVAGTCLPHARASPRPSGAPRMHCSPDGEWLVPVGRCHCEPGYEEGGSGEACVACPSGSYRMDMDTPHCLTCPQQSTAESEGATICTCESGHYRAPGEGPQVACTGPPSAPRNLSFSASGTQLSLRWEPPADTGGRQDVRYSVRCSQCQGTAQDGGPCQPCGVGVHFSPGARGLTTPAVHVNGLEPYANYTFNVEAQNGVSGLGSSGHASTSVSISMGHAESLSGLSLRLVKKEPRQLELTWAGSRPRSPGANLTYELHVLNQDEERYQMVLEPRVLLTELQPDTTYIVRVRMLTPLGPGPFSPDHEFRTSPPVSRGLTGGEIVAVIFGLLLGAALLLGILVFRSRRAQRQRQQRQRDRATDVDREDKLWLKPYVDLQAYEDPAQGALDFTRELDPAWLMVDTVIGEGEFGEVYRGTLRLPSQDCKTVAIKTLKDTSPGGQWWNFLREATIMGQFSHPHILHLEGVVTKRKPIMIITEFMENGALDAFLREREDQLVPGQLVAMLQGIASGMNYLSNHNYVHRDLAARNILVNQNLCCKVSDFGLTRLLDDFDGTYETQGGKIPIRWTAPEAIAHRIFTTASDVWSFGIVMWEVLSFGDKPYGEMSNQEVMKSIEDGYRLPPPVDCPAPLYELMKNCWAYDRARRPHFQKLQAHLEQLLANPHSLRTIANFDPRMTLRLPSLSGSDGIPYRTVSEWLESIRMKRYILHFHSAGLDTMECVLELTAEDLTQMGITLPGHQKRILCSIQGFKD

[4] = molecular target: T2, Tyrosine-protein kinase JAK3 (Homo sapiens) (UniProt P52333); experiment: Selectivity interaction (Antiproliferative activity against Tel-kinase transformed Ba/F3 cell line) EUB0000045b JAK3; type: cell-based; conditions: BaF3
T2 sequence (whole entry): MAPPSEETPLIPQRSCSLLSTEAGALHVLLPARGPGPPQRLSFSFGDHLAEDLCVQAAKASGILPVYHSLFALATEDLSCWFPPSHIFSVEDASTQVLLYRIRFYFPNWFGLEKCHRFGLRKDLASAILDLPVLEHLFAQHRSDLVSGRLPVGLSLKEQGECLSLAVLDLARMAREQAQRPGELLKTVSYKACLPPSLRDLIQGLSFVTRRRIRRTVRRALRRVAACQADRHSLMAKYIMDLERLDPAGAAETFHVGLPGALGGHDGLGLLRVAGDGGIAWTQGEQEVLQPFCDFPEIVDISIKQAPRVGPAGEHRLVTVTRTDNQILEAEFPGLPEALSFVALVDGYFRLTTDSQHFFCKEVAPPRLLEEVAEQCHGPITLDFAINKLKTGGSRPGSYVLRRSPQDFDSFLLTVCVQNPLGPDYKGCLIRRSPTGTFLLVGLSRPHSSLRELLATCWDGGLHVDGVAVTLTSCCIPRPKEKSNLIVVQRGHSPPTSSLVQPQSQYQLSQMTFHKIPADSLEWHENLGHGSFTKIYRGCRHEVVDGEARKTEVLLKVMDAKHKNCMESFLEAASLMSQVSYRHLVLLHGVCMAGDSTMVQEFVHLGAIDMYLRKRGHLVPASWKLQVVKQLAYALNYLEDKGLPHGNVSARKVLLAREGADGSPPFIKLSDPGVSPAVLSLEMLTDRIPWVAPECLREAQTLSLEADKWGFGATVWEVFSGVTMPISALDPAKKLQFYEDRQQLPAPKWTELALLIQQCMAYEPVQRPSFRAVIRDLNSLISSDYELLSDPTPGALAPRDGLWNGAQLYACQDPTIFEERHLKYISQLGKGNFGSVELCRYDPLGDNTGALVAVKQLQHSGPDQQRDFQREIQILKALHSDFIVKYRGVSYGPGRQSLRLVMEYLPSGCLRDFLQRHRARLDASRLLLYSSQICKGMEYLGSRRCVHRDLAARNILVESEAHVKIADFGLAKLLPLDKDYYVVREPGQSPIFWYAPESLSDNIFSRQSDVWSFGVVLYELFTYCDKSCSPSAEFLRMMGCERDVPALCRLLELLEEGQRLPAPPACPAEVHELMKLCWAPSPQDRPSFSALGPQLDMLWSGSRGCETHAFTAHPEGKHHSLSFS

Mitogen-activated protein kinase 4 (Homo sapiens), sequence (P31152 whole entry): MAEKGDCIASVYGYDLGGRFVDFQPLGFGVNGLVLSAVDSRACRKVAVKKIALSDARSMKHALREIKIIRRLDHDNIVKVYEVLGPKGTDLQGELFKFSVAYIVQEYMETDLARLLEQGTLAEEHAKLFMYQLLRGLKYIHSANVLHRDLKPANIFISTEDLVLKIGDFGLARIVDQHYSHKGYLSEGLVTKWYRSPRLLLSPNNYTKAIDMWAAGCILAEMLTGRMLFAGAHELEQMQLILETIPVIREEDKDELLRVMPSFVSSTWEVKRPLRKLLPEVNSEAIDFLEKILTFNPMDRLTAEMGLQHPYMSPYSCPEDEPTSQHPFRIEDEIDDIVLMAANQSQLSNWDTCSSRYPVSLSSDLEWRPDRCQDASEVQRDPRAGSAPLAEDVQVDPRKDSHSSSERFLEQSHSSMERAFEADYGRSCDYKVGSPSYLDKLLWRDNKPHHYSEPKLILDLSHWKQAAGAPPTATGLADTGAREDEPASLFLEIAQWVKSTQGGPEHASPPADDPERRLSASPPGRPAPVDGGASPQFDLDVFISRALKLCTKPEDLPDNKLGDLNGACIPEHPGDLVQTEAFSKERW
Mitogen-activated protein kinase 14, sequence (Q16539 whole entry): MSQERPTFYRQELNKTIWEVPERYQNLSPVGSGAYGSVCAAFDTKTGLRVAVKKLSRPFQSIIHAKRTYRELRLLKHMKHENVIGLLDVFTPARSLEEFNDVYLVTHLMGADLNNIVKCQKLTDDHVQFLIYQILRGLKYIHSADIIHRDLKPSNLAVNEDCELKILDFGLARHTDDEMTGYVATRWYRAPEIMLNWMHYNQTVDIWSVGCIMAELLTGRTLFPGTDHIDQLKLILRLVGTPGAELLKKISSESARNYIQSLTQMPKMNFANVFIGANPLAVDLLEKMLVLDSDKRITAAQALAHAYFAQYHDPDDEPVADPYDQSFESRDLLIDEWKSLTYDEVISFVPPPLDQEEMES

Q: How did the % of control [1] turn out when O=C(NOC[C@H](O)CO)c1ccc(F)c(F)c1Nc1ccc(I)cc1F was run?
A: The % of control was 100%.

Q: With Nc1cnc(N2CCc3cc(S(=O)(=O)Nc4c(F)cc(Cl)cc4F)cc(N4CCCC4=O)c32)nc1 [TP-020n] as the compound, how does the % of control [2] read?
A: Its % of control is 100%.

Q: Which % of control [3] does the source give for CCC(=O)N1CCN(c2ccc(-n3c(=O)ccc4cnc5ccc(-c6cnc7ccccc7c6)cc5c43)cc2C(F)(F)F)CC1 here?
A: Its % of control is 62%.

Q: Which GIC50 [4] does the source give for C=CC(=O)Nc1cc(-n2c(=O)ccc3cnc4ccc(-c5ccc(NS(C)(=O)=O)cc5)cc4c32)ccc1C here?
A: Its GIC50 is 7.98 µM.
